Assay results as given in ChEMBL document CHEMBL4304765 (ACS Med Chem Lett, 2019).
Active and inactive are the calls of the source.

Experiments:
Rattus norvegicus = test: Antiallodynic activity in streptozocin-induced Sprague-Dawley rat of diabetic neuropathy model assessed as increase in mechanical withdrawal threshold at 10 mg/kg administered via oral gavage and measured for 3 to 4 times at 1 min interval by von Frey assay; assay type: functional, organism-based
[1] = molecular target: T1, Bifunctional epoxide hydrolase 2 (Homo sapiens) (UniProt P34913)
T1 sequence (whole entry): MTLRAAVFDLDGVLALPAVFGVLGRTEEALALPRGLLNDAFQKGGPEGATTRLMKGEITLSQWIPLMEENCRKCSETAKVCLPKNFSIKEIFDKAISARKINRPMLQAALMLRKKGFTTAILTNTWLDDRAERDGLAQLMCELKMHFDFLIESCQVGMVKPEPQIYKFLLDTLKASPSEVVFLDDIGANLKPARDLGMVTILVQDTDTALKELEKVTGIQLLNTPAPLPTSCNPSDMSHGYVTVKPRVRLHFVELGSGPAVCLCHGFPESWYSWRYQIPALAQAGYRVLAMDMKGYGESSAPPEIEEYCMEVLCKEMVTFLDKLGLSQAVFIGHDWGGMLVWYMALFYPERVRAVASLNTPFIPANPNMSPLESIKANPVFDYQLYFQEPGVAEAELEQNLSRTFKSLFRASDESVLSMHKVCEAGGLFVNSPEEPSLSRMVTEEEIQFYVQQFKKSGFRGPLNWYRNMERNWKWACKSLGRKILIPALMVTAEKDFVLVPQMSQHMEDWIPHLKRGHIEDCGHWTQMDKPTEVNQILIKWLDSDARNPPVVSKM
Description: Binding affinity to recombinant human C-terminal soluble epoxide hydrolase-hydrolase domain (222 to 555 residues) expressed in Escherichia coli BL21(DE3) assessed as change in melting temperature at 200 uM by SYPRO orange dye-based differential scanning fluorimetric analysis (Rvb = 57.0 +/- 0.0 degreeC)

[2] = molecular target: Beta-1 adrenergic receptor (Homo sapiens, UniProt P08588); test: Binding affinity to beta1 adrenergic receptor (unknown origin) by radioligand binding assay
[3] = molecular target: Beta-2 adrenergic receptor (Homo sapiens, UniProt P07550); test: Binding affinity to beta2 adrenergic receptor (unknown origin) by radioligand binding assay
[4] = molecular target: T2, Bifunctional epoxide hydrolase 2 (Homo sapiens, UniProt P34913); test: Inhibition of recombinant human full length soluble epoxide hydrolase (1 to 555 residues) expressed in Escherichia coli BL21(DE3) using non-fluorescent PHOME as substrate preincubated for 30 mins followed by substrate addition and measured after 30 mins by fluorescence based assay
T2 sequence (P34913 whole entry): T1 sequence (whole entry)

[5] = Metabolic stability in Sprague-Dawley rat liver microsomes at 10 uM preincubated for 5 mins followed by NADPH addition and measured for 60 mins by HPLC analysis; assay type: ADME, Microsome; settings: read-out: Stability

| IC50 [4] | Compound | Activity (Rattus norvegicus) | Tm [1] | Activity [2] | Activity [3] | IC50 ([4]; read-out: IC50) | remaining at 1 h, 10 µM [5] | Ki [2] | Ki [3] |
| --- | --- | --- | --- | --- | --- | --- | --- | --- | --- |
| – | CC(C)(C)N1CCOC(COc2ccc(NC(=O)NC3CCCCC3)cc2)C1 (configuration not stated) | Active | 65.1 °C | inactive | inactive | 0.077 µM | 71% | – | – |
| Not Active | CC(C)NCC(O)COc1cccc2ccccc12 (configuration not stated) [PROPRANOLOL] | – | 56.3 °C | – | – | – | 37% | – | – |
| – | CC(C)(C)NCC(O)COc1ccc(NC(=O)NC2CCCCC2)cc1 (configuration not stated) [TALINOLOL] | – | – | – | – | – | 86% | 0.24 µM | 0.9 µM |
